This note sets out measurements from ChEMBL document CHEMBL2346651, “Structure-activity relationship study of tachykinin peptides for the development of novel neurokinin-3 receptor selective agonists” (Bioorg Med Chem, 2013).

pEC50, pIC50: −log10 of the molar value. Residues, ends and D or L forms follow the SMILES beside them.

The target of experiment [1] is T1, Substance-K receptor (Homo sapiens) (UniProt P21452).
T1 sequence (whole entry): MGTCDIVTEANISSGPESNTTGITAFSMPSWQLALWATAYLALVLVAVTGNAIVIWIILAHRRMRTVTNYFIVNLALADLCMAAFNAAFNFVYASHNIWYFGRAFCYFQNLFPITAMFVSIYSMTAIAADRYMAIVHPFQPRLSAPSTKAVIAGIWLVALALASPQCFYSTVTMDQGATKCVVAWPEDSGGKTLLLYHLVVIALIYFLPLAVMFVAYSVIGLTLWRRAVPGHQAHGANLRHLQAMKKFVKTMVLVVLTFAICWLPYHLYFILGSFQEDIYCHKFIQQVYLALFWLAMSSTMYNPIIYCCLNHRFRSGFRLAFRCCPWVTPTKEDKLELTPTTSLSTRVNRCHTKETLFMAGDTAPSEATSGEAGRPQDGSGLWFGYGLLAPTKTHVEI
In words: Displacement of [125I]-NKA from NK2R (unknown origin) transfected in CHO cells at 10 uM by gamma counting analysis. Type of experiment: cell-based. (In general: In a radioligand displacement assay an active substance lowers the binding of a labelled ligand.)

Experiment [2] addresses Substance-P receptor (Homo sapiens) (UniProt P25103). The experiment is described as follows: Displacement of [125I]-BH-SP from NK1R (unknown origin) transfected in CHO cells at 10 uM by gamma counting analysis. It is filed as cell-based.
The target in experiment [3] is T2, Neuromedin-K receptor (Homo sapiens, UniProt P29371).
T2 sequence (P29371 whole entry): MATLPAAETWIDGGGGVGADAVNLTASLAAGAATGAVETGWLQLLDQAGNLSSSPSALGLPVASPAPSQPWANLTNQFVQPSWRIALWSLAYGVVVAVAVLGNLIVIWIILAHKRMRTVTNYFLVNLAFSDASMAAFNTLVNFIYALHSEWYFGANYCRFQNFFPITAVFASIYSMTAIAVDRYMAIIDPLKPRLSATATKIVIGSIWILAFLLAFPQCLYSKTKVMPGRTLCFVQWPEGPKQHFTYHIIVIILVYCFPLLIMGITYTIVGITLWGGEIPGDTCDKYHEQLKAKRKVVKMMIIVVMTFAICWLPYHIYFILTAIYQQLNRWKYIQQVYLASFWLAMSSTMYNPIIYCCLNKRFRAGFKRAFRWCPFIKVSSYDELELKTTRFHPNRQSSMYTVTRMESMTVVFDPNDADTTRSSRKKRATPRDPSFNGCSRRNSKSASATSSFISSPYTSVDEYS
In words: Agonist activity at NK3R (unknown origin) transfected in CHO cells assessed as calcium influx […]. It is filed as functional, cell-based.

Experiment [4] deals with T2, Neuromedin-K receptor. In words: Displacement of ([125I]-His3, MePhe7)-NKB from NK3R (unknown origin) transfected in CHO cells by gamma counting analysis. It is filed as cell-based.

Substance-P receptor (Homo sapiens), sequence (P25103 whole entry): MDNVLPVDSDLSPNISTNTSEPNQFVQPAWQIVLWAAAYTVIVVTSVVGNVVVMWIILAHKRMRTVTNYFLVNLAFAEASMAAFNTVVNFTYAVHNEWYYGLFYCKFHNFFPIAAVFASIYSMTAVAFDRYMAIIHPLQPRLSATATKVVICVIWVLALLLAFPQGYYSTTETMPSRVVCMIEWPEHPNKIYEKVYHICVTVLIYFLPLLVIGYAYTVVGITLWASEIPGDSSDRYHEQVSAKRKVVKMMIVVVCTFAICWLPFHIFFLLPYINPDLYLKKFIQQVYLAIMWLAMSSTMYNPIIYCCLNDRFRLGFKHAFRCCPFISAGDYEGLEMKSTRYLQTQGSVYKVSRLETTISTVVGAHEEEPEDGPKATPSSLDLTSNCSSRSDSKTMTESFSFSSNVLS

By inhibition is commonly meant the change of the read-out against control, counted positive when it falls. One may read the pEC50 as the EC50 on a negative log10 scale, so that one unit is a factor of ten. A word on the pIC50: it is the IC50 on a negative log10 scale, so that one unit is a factor of ten. Read a high pIC50 as a low IC50. Turning to `CSCC[C@H](NC(=O)[C@H](CC(C)C)NC(=O)CNC(=O)[C@@H](NC(=O)[C@H](Cc1ccccc1)NC(=O)[C@H](CCC(=O)O)NC(=O)[C@H](CC(=O)O)NC(=O)[C@@H]1CCCN1C(=O)[C@H](CC(N)=O)NC(=O)[C@@H]1CCCN1C(=O)[C@@H]1CCC(=O)N1)C(C)C)C(N)=O` (HELM PEPTIDE1{[Glp].P.N.P.D.E.F.V.G.L.M.[am]}$$$$V2.0), the figures for the inhibition in experiment [1] and in experiment [2] were 92% and 94%, respectively. For the same compound, in experiment [3], the pEC50 was 10.10. The compound also gave a pIC50 in experiment [4] of 7.28.
As to `CSCC[C@H](NC(=O)[C@H](CC(C)C)NC(=O)CNC(=O)[C@H](Cc1ccc(O)cc1)NC(=O)[C@H](Cc1ccccc1)NC(=O)[C@H](CCC(=O)O)NC(=O)[C@H](CC(=O)O)NC(=O)[C@@H]1CCCN1C(=O)[C@H](CC(N)=O)NC(=O)[C@@H]1CCCN1C(=O)[C@@H]1CCC(=O)N1)C(N)=O` (HELM PEPTIDE1{[Glp].P.N.P.D.E.F.Y.G.L.M.[am]}$$$$V2.0), the inhibition in experiment [1] is less than 10%; in experiment [2], 98%. The pEC50 in experiment [3] was 8.86. Also, the pIC50 in experiment [4] is 6.15.
On the same counts, the results for `CSCC[C@H](NC(=O)[C@H](CC(C)C)NC(=O)CNC(=O)[C@H](Cc1ccccc1)N(C)C(=O)[C@H](Cc1ccccc1)NC(=O)[C@H](C)NC(=O)[C@H](CC(=O)O)NC(=O)[C@H](CCCCN)NC(=O)[C@H](CO)NC(=O)[C@@H]1CCCN1C(=O)[C@@H]1CCC(=O)N1)C(N)=O` (HELM PEPTIDE1{[Glp].P.S.K.D.A.F.[meF].G.L.M.[am]}$$$$V2.0) are 26%, 48%, 10.15 and 8.15.
On the same counts, the results for `CC[C@H](C)[C@H](NC(=O)[C@H](Cc1ccccc1)NC(=O)[C@H](CC(=O)O)NC(=O)[C@H](CC(=O)O)NC(=O)[C@H](CCCCN)NC(=O)[C@H](CO)NC(=O)[C@@H]1CCCN1C(=O)[C@@H]1CCC(=O)N1)C(=O)NCC(=O)N[C@@H](CC(C)C)C(=O)N[C@@H](CCSC)C(N)=O` (HELM PEPTIDE1{[Glp].P.S.K.D.D.F.I.G.L.M.[am]}$$$$V2.0) are 56%, 91%, 11.27 and 7.46.
As for `CSCC[C@H](NC(=O)[C@H](CC(C)C)NC(=O)CNC(=O)[C@H](Cc1ccccc1)N(C)C(=O)[C@H](Cc1ccccc1)NC(=O)[C@H](CC(=O)O)NC(=O)[C@H](CC(=O)O)NC(=O)[C@H](CCCCN)NC(=O)[C@H](CO)NC(=O)[C@@H]1CCCN1C(=O)[C@@H]1CCC(=O)N1)C(N)=O` (HELM PEPTIDE1{[Glp].P.S.K.D.D.F.[meF].G.L.M.[am]}$$$$V2.0), the inhibition in experiment [1] and in experiment [2] was less than 10% each time. The pEC50 in experiment [3] is 10.11. Further, the pIC50 in experiment [4] was 8.26.
Take `CSCC[C@H](NC(=O)[C@H](CC(C)C)NC(=O)CNC(=O)[C@H](Cc1ccccc1)N(C)C(=O)[C@H](Cc1ccccc1)NC(=O)[C@H](CC(=O)O)NC(=O)[C@H](CC(N)=O)NC(=O)[C@@H]1CCCN1C(=O)[C@H](CO)NC(=O)[C@@H]1CCCN1C(=O)[C@@H]1CCC(=O)N1)C(N)=O` (HELM PEPTIDE1{[Glp].P.S.P.N.D.F.[meF].G.L.M.[am]}$$$$V2.0): the inhibition in experiment [1] and in experiment [2] was less than 10% each time. The pEC50 in experiment [3] is 9.89. The same compound had a pIC50 in experiment [4] of 7.77.
Regarding H-DTGDKFYGLM-NH2 [SIALOKININ II], the inhibition in experiment [1] came to 98%; in experiment [2], 99%. Further, in experiment [3], the pEC50 is 7.96. In addition, the pIC50 in experiment [4] is 5.71.
Regarding H-DVPKSDDFVGLM-NH2, the inhibition in experiment [1] was 74%; in experiment [2], 53%. Moreover, the pEC50 in experiment [3] was 9.33. Besides, the pIC50 in experiment [4] was 7.05.
